# PMC13065040 (PLOS One, 2026)
# How the values were obtained:
# [1] = target: T1, MMP-2 (Homo sapiens, UniProt P08253); experiment: Differential scanning fluorimetry (DSF); type: binding; design: Dtm (ΔTm): unit not given here; conditions: for Dtm (ΔTm), average / Tm of MMP-2 with peptide, average: average of replicates; for Dtm (ΔTm) / Tm of MMP-2 with peptide: CTX experiment
# T1 construct: ProSpec Bio; Antibodies-Online; Elabscience; Abcam ENZ-769; ABIN7400042; PKSH033450
# T1 sequence (P08253 110-660): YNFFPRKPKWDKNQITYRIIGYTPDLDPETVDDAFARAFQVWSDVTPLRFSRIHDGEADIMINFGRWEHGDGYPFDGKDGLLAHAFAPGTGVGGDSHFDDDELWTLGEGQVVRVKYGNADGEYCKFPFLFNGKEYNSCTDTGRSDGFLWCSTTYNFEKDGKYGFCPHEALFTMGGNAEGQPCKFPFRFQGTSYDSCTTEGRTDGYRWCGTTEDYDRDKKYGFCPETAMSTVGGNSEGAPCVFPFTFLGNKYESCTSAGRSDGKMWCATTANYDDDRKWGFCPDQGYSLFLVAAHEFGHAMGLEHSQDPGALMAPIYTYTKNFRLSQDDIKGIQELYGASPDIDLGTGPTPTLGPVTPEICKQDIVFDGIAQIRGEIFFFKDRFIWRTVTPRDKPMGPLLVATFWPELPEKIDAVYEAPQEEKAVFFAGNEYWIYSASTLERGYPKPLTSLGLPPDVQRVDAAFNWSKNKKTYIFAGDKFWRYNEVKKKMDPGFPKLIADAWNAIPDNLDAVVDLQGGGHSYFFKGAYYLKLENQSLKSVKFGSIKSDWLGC
# Method: The melting temperatures (Tm) of recombinant MMP-2 and its complexes with peptides were ascertained using BioRad CFX384 Touch real-time PCR (Hercules, CA, USA). The experiments were performed as previously described. The unfolding of the protein was detected using the fluorescent SYPRO-orange dye (Invitrogen, Carlsbad, CA, USA). MMP-2 and prospective ligand peptides were dissolved in 7.1 pH phosphate buffered saline (154 mM NaCl, 5.6 mM Na2PO4, 1.1 mM KH2PO4), and the reaction mixture was made to a final concentration of 1 µM of protein, either 30 µM ([…]) of peptide, and 1000x dilution of the SYPRO-Orange dye stock from the manufacturer. Excitation and emission filters of the dye were set at 450 − 490 nm and 560 − 580 nm, respectively. The temperature for the reaction was held at 25 °C for 5 min, and then a gradient of 25 °C to 95 °C was applied at a rate of 0.3 °C/min, and the fluorescence was recorded. To determine Tm of the protein, the first derivatives of melting curves were plotted using GraphPad Prism software, version 10.0.3.
# [2] = target: T1, MMP-2; experiment: Surface plasmon resonance (SPR), immobilized MMP-2; type: binding; conditions: NTA chip, peptides 500 µM to 3.90 µM, pH 7.4
# Method: Surface plasmon resonance (SPR) reagents, plates, and the NTA chip were purchased from GE Healthcare Life Sciences, now Cytiva (Marlborough, MA, USA). Measurements were performed using the Biacore 8000 SPR System (Marlborough, MA. USA). The running buffer used for protein immobilization and peptide binding consisted of 20 mM Tris, 150 mM NaCl, […] and 0.0005% Tween-20, adjusted to pH 7.4. MMP-2 and NRP-1 were immobilized onto the NTA chip at 15 nM and 25 nM concentration, respectively. Peptides were injected over the immobilized proteins using two-fold serial dilutions from 500 µM to 3.90 µM. Three experiments with four replicates of each were performed. The SPR response curves generated from the Biacore Insight Evaluation Software were fitted to a steady-state affinity model to obtain an equilibrium dissociation constant (KD) for each peptide — protein interaction.
# [3] = tested on: GBM cells; conditions: read-out: IC50, inhibition of migration of GBM cells; cited from earlier work
# Source text: Ctx (Fig 2) is a 36-residue polypeptide from the scorpion Leiurus quinquestriatus. Ctx contains 8 cysteinyl residues, forming 4 disulfide bridges which help to stabilize its three-dimensional structure. […] However, conflicting data on the effects of Ctx on the glioma-specific chloride channel makes it difficu ...
substance,measurement,setting,value
Chlorotoxin [Ctx],"Dtm (ΔTm), average",[1]; peptide 30 (µM per method),2.368e-15
same,"Tm of MMP-2 with peptide, average",[1]; peptide 30 (µM per method),47.7
same,Dtm (ΔTm),"[1]; peptide 30, replicate 1",-0.2
same,Tm of MMP-2 with peptide,"[1]; peptide 30, replicate 1",47.5 °C
same,Dtm (ΔTm),"[1]; peptide 30, replicate 2",0.1
same,Tm of MMP-2 with peptide,"[1]; peptide 30, replicate 2",47.8 °C
same,Dtm (ΔTm),"[1]; peptide 30, replicate 3",0.1
same,Tm of MMP-2 with peptide,"[1]; peptide 30, replicate 3",47.8 °C
same,"Dtm (ΔTm), average",[1]; peptide 50 (µM per method),-0.2
same,"Tm of MMP-2 with peptide, average",[1]; peptide 50 (µM per method),47.5
same,Dtm (ΔTm),"[1]; peptide 50, replicate 1",-0.2
same,Tm of MMP-2 with peptide,"[1]; peptide 50, replicate 1",47.5 °C
same,Dtm (ΔTm),"[1]; peptide 50, replicate 2",-0.2
same,Tm of MMP-2 with peptide,"[1]; peptide 50, replicate 2",47.5 °C
same,Dtm (ΔTm),"[1]; peptide 50, replicate 3",-0.2
same,Tm of MMP-2 with peptide,"[1]; peptide 50, replicate 3",47.5 °C
same,binding to MMP-2 by SPR,[2],did not bind
same,IC50,[3],184 nM
